Like-named read-outs stand apart in the source and are kept apart here.
Columns and labels:
[1] = biological target: wild type PRC2 (wtPRC2) complex (Homo sapiens (Human), UniProt Q15910); assay: EZH2 LC-MS assay (LC-Qualified); type: biochemical; settings: (a) LC-Qualified assay
Procedure: Representative compounds of the invention were serially and separately diluted 3-fold in DMSO to obtain twelve concentrations. […] Solutions (6 μL) of 80 nM wild type PRC2 (wtPRC2) complex and 60 μM SAM in reaction buffer (20 mM Tris, pH 8.0, 0.1% BSA, 0.01% Triton, 0.5 mM DTT) were added to the wells that were then incubated with the test compound for 20 min. A 6 μL solution of 3 μM of the substrate peptide H3K27me1 (histone H3[21-44]-K27me1-biotin) and 6 μM regulatory peptide H3K27me3 (histone H3[21-44]-K27me3) in reaction buffer was added to initiate each reaction. […] The data were fit to a dose response equation using the program Helios to get the IC50 values of the test compound.

[2] = system: B cell lymphoma cell KARPAS422; assay: Analysis of cell proliferation, KARPAS422; type: cell-based, human; settings: KARPAS422 after 14 days of treatment, read-out: antiproliferative activities IC50
Procedure: B cell lymphoma cell KARPAS422 was cultured using standard cell culture conditions in RPMI-1640 (Invitrogen, cat #11875) supplemented with 15% FBS (Invitrogen, cat #10099-141) in humidified incubator at 37° C., 5% CO2. To assess the effect of PRC2 inhibition on cell proliferation, exponentially growing cells were seeded at a density of 1×10^5 cells/mL in 12-well plate (Corning, cat #CLS3513). After cell seeding, a compound of the invention was added to the cell media (in concentrations ranging from 0 to 100 μM, 3× dilution series). Viable cell numbers were determined every 3-4 days for up to 14 days using Vi-CELL (Beckman Coulter). On days of cell counting, fresh growth media and compound were replenished and cells split back to a density of 1×10^5 cells/mL. Total cell number is expressed as split-adjusted viable cells per mL. The dose response curves and IC50 values were generated using Prism.

[3] = biological target: EZH2 (Homo sapiens (Human), UniProt Q15910); assay: ELISA (H3K27 methylation) assay in G401 cell; type: cell-based; settings: (b) ELISA Qualified assay, 48 h
Procedure: Representative compounds of the invention were serially and separately diluted 3-fold in DO to obtain a total of eight or twelve concentrations. Then the compounds were added to G401 cell cultured in 384-well plate at 1:500 dilution to obtain the highest concentration of 20 μM. The cells were further cultured for 48 h before ELISA procedure.
ELISA protocol: Cell lysates were transferred to the wells of a 384-well plate and the final volume was adjusted to 50 μL per well with PBS. The plate was sealed, centrifuged at 2,000 rpm for 2 min and incubated at 4° C. for about 16 h. The plate was washed with TBST buffer (1×TBS (10×TBS: 24.2 g Tris (Sigma, T6066), 80 g NaCl (Sigma, S3014) to 1 L of water and adjust pH to 7.6 with HCl) with 0.1% Tween-20). Blocking buffer (TBST, 5% BSA; 50 μL per well) was added and the plate was incubated for 1 h at rt. The blocking buffer was removed and primary antibody was added (30 μL per well). […] The primary antibody was incubated in the plate at rt for 1 h. The wells were washed with TBST and incubated with secondary antibody for 1 h at rt.
After 1 h of incubation at rt, the wells were washed with TBST. […] The signal was read using a PerkinElmer Envision Reader. The H3K27 methylation readouts were normalized using H3 signal and then percentage inhibition was calculated against the samples treated with DO. The data were fit to a dose response curve using the program Helios to get the IC50 values of the test compound.

[4] = Homo sapiens, KARPAS-422, 336 h

Chain of EZH2 (Q15910 whole entry): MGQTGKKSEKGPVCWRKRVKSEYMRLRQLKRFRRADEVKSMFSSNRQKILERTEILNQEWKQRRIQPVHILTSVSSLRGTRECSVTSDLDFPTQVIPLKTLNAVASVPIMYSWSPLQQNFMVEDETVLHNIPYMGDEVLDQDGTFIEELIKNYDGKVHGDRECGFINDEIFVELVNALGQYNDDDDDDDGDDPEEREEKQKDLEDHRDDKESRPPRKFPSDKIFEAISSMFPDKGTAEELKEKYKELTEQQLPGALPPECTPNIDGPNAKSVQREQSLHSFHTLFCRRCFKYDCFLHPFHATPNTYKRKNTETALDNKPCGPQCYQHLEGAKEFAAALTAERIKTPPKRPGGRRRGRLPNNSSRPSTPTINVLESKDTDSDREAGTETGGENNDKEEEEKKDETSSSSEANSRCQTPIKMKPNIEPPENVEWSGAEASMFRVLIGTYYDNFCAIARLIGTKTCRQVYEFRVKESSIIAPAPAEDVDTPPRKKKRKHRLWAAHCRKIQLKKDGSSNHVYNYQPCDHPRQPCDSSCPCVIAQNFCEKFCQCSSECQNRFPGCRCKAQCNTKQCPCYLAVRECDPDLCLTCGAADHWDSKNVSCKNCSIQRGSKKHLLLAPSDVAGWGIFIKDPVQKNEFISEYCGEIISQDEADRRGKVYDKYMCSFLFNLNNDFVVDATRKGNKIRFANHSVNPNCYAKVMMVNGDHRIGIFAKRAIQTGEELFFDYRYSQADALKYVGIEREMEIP
Chain of EZH2 (Q15022 whole entry partner): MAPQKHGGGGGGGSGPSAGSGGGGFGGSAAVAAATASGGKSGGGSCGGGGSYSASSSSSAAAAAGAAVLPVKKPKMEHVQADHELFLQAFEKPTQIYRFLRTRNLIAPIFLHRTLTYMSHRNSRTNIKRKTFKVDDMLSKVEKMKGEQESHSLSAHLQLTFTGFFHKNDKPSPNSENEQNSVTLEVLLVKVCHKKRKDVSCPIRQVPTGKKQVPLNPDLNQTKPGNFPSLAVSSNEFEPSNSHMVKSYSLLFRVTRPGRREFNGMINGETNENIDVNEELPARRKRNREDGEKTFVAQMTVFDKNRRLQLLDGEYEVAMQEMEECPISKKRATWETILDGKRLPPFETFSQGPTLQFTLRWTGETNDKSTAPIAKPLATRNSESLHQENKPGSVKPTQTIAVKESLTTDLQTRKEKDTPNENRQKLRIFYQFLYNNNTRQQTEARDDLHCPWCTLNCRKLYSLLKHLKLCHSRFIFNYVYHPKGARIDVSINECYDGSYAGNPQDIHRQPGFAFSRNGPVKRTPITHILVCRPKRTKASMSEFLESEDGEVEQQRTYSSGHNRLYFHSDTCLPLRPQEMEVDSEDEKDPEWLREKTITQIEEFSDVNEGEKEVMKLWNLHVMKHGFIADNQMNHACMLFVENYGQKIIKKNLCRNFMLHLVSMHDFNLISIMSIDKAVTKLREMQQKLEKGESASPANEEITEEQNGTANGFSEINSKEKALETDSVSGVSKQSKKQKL
Chain of EZH2 (O75530 whole entry partner): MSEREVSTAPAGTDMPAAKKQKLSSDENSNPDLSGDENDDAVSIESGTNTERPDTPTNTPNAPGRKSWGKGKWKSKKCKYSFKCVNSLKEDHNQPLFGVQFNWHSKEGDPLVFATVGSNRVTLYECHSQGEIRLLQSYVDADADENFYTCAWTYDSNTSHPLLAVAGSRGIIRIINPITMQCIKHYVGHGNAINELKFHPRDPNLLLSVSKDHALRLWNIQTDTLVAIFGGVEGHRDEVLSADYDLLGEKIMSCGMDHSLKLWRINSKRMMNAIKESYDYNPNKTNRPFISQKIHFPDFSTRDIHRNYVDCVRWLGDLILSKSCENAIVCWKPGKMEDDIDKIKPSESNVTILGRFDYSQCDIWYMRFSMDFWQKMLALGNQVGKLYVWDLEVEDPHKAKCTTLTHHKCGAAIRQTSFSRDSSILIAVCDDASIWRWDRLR
Chain of EZH2 (Q09028 whole entry partner): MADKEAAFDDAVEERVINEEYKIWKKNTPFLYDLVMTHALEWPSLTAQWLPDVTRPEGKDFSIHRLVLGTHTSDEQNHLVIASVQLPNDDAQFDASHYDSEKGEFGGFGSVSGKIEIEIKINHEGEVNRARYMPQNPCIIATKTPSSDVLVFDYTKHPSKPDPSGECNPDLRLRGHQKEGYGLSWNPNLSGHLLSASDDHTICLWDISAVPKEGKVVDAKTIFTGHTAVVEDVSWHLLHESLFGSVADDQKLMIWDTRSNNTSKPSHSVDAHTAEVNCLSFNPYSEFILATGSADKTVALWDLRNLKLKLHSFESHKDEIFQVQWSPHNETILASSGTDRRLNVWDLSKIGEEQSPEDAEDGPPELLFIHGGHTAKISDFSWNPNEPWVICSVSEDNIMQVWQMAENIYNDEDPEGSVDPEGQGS
Chain of wild type PRC2 (wtPRC2) complex (Q15910 whole entry): as the sequence (Q15910 whole entry) above
Chain of wild type PRC2 (wtPRC2) complex (Q15022 whole entry partner): as the sequence (Q15022 whole entry partner) above
Chain of wild type PRC2 (wtPRC2) complex (O75530 whole entry partner): as the sequence (O75530 whole entry partner) above
Chain of wild type PRC2 (wtPRC2) complex (Q09028 whole entry partner): as the sequence (Q09028 whole entry partner) above
Chain of wild type PRC2 (wtPRC2) complex (Q6ZN18 whole entry partner): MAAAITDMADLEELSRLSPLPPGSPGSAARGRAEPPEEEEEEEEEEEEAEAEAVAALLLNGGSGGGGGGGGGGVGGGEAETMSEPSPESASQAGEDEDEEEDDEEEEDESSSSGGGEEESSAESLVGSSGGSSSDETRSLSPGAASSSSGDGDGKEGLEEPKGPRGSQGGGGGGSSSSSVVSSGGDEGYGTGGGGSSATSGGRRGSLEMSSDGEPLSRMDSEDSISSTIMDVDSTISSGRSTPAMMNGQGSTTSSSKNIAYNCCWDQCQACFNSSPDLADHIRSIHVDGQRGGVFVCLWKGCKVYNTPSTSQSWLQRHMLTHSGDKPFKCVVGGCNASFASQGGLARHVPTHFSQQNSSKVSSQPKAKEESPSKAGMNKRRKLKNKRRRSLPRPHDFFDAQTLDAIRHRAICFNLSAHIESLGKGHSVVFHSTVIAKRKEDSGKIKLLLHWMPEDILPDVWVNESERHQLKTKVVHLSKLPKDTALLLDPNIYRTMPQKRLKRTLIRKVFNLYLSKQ

SMILES | IC50 [1] | IC50 [2, 4] | IC50 [3] | IC50 [2]
OCC1COC(c2cnc(NC[C@H]3CC[C@H](Nc4ccc5ccnc(Cl)c5n4)CC3)nc2)OC1 (mixture of isomers) [Compound C34, (2-(2-((((1,4-trans)-4-((8-chloro-1,7-naphthyridin-2-yl)amino)cyclohexyl)methyl)amino)pyrimidin-5-yl)-1,3-dioxan-5-yl)methanol] | 0.028 µM | 18 nM | 0.038 µM | –
O=C(Cc1cnc(NC[C@H]2CC[C@H](Nc3ccc4ccnc(Cl)c4n3)CC2)nc1)NC1COC1 [Compound C36, 2-(2-((((1,4-trans)-4-((8-chloro-1,7-naphthyridin-2-yl)amino)cyclohexyl)methyl)amino)pyrimidin-5-yl)-N-(oxetan-3-yl)acetamide] | 0.009 µM | 3 nM | 0.011 µM | –
CNc1nccc2ccc(N[C@H]3CC[C@H](CNc4ncc(C(N)=O)cn4)CC3)nc12 [Compound C61, 2-((((1,4-trans)-4-((8-(methylamino)-1,7-naphthyridin-2-yl)amino)cyclohexyl)methyl)amino)pyrimidine-5-carboxamide] | 0.049 µM | 41 nM | 0.032 µM | –
O=C(Cc1cnc(NC[C@H]2CC[C@H](Nc3ccc4ccnc(Cl)c4n3)CC2)nc1)N(CCO)C1COC1 [Compound C51, 2-(2-((((1,4-trans)-4-((8-chloro-1,7-naphthyridin-2-yl)amino)cyclohexyl)methyl)amino)pyrimidin-5-yl)-N-(2-hydroxyethyl)-N-(oxetan-3-yl)acetamide] | 0.038 µM | 8 nM | 0.018 µM | –
N#CCCN(C(=O)Cc1cnc(NC[C@H]2CC[C@H](Nc3ccc4ccnc(Cl)c4n3)CC2)nc1)C1COC1 [Compound C49, 2-(2-((((1,4-trans)-4-((8-chloro-1,7-naphthyridin-2-yl)amino)cyclohexyl)methyl)amino)pyrimidin-5-yl)-N-(2-cyanoethyl)-N-(oxetan-3-yl)acetamide] | 0.008 µM | 0.5 nM | 0.002 µM | –
C[C@H](C(=O)NC1COC1)c1cnc(NC[C@H]2CC[C@H](Nc3ccc4ccnc(Cl)c4n3)CC2)nc1 (relative stereo) [Compound C53, (S)-2-(2-((((1,4-trans)-4-((8-chloro-1,7-naphthyridin-2-yl)amino)cyclohexyl)methyl)amino)pyrimidin-5-yl)-N-(oxetan-3-yl)propanamide] | – | – | – | 0.3 nM
COc1nccc2ccc(N[C@H]3CC[C@H](CNc4ncc(C(=O)N5CCNCC5)cn4)CC3)nc12 [Compound C8, (2-((((1,4-trans)-4-((8-methoxy-1,7-naphthyridin-2-yl)amino)cyclohexyl)methyl)amino)pyrimidin-5-yl)(piperazin-1-yl)methanone] | 0.07 µM | 72 nM | 0.077 µM | –
CC1(NCc2cnc(NC[C@H]3CC[C@H](Nc4ccc5ccnc(Cl)c5n4)CC3)nc2)COC1 [Compound C28, 8-chloro-N-((1,4-trans)-4-(((5-(((3-methyloxetan-3-yl)amino)methyl)pyrimidin-2-yl)amino)methyl)cyclohexyl)-1,7-naphthyridin-2-amine] | 0.031 µM | 2 nM | 0.005 µM | –
CN(C(=O)Cc1cnc(NC[C@H]2CC[C@H](Nc3ccc4ccnc(Cl)c4n3)CC2)nc1)C1COC1 [Compound C37, 2-(2-((((1,4-trans)-4-((8-chloro-1,7-naphthyridin-2-yl)amino)cyclohexyl)methyl)amino)pyrimidin-5-yl)-N-methyl-N-(oxetan-3-yl)acetamide] | 0.015 µM | 0.7 nM | 0.002 µM | –
COc1nccc2ccc(N[C@H]3CC[C@H](CNc4ncc(N)cn4)CC3)nc12 [Compound C1, N^2-(((1,4-trans)-4-((8-methoxy-1,7-naphthyridin-2-yl)amino)cyclohexyl)methyl)pyrimidine-2,5-diamine] | 0.121 µM | 20 nM | 0.042 µM | –
OCCc1cnc(NC[C@H]2CC[C@H](Nc3ccc4ccnc(Cl)c4n3)CC2)nc1 [Compound C46, 2-(2-((((1,4-trans)-4-((8-chloro-1,7-naphthyridin-2-yl)amino)cyclohexyl)methyl)amino)pyrimidin-5-yl)ethan-1-ol] | 0.012 µM | – | 0.013 µM | –
COC(=O)N(C)c1cnc(NC[C@H]2CC[C@H](Nc3ccc4ccnc(Cl)c4n3)CC2)nc1 [Compound C65, Methyl (2-((((1,4-trans)-4-((8-chloro-1,7-naphthyridin-2-yl)amino)cyclohexyl)methyl)amino)pyrimidin-5-yl)(methyl)carbamate] | 0.059 µM | – | 0.065 µM | –
O=C(NCc1cnc(NC[C@H]2CC[C@H](Nc3ccc4ccnc(Cl)c4n3)CC2)nc1)C1CCN1 (stereo partly drawn) [Compound C58, N-((2-((((1,4-trans)-4-((8-chloro-1,7-naphthyridin-2-yl)amino)cyclohexyl)methyl)amino)pyrimidin-5-yl)methyl)azetidine-2-carboxamide] | 0.038 µM | – | 0.117 µM | –

Now from value to molecule:

IC50 [1] | IC50 [2, 4] | IC50 [3] | IC50 [2] | SMILES
0.101 µM | 69 nM | 0.066 µM | – | COc1nccc2ccc(N[C@H]3CC[C@H](CNc4ncc(NC(C)=O)cn4)CC3)nc12 [Compound C6, N-(2-((((1,4-trans)-4-((8-methoxy-1,7-naphthyridin-2-yl)amino)cyclohexyl)methyl)amino)pyrimidin-5-yl)acetamide]
– | 2 nM | – | – | C[C@@H](C(=O)N1CC(O)C1)c1cnc(NC[C@H]2CC[C@H](Nc3ccc4ccnc(Cl)c4n3)CC2)nc1 [Compound C71, (R)-2-(2-((((1,4-trans)-4-((8-chloro-1,7-naphthyridin-2-yl)amino)cyclohexyl)methyl)amino)pyrimidin-5-yl)-1-(3-hydroxyazetidin-1-yl)propan-1-one]
0.027 µM | 8 nM | 0.019 µM | – | Clc1nccc2ccc(N[C@H]3CC[C@H](CNc4ncc(CNC5COC5)cn4)CC3)nc12 [Compound C27, 8-chloro-N-((1,4-trans)-4-(((5-((oxetan-3-ylamino)methyl)pyrimidin-2-yl)amino)methyl)cyclohexyl)-1,7-naphthyridin-2-amine]
0.017 µM | 31 nM | 0.028 µM | – | COC(=O)Nc1cnc(NC[C@H]2CC[C@H](Nc3ccc4ccnc(Cl)c4n3)CC2)nc1 [Compound C15, Methyl (2-((((1,4-trans)-4-((8-chloro-1,7-naphthyridin-2-yl)amino)cyclohexyl)methyl)amino)pyrimidin-5-yl)carbamate]
– | 1 nM | – | – | O=C(NC1COC1)[C@H](O)c1cnc(NC[C@H]2CC[C@H](Nc3ccc4ccnc(Cl)c4n3)CC2)nc1 [Compound C76, (R)-2-(2-((((1,4-trans)-4-((8-chloro-1,7-naphthyridin-2-yl)amino)cyclohexyl)methyl)amino)pyrimidin-5-yl)-2-hydroxy-N-(oxetan-3-yl)acetamide]
0.018 µM | 2 nM | 0.007 µM | – | O=C(Cc1ccc(NC[C@H]2CC[C@H](Nc3ccc4ccnc(Cl)c4n3)CC2)nc1)NC1COC1 [Compound C42, 2-(6-((((1,4-trans)-4-((8-chloro-1,7-naphthyridin-2-yl)amino)cyclohexyl)methyl)amino)pyridin-3-yl)-N-(oxetan-3-yl)acetamide]
0.035 µM | – | 0.031 µM | – | O=C(Cc1cnc(NC[C@H]2CC[C@H](Nc3ccc4ccnc(Cl)c4n3)CC2)nc1)N1CCNCC1 [Compound C41, 2-(2-((((1,4-trans)-4-((8-chloro-1,7-naphthyridin-2-yl)amino)cyclohexyl)methyl)amino)pyrimidin-5-yl)-1-(piperazin-1-yl)ethan-1-one]
0.063 µM | – | 0.062 µM | – | COc1nccc2ccc(N[C@H]3CC[C@H](CNc4ncc(C(N)=O)cn4)CC3)nc12 [Compound C5, 2-((((1,4-trans)-4-((8-methoxy-1,7-naphthyridin-2-yl)amino)cyclohexyl)methyl)amino)pyrimidine-5-carboxamide]
